Source: patent US20220175675A1, “ENCAPSULATING MOLECULES IN FAT GLOBULES” (The Regents of the University of California, priority 2019, published 2022)
Where “and” joins values, the source holds several entries; their conditions need not be identical. Identical values can stand only once. Like-named read-outs stand apart in the source and are kept apart here. Marks after values point to notes of the source that are not given here.

Tests used:
[1] = cited from earlier work
[2] = cited from earlier work; for Log P: octanol/water; for Water/octanol partitioning coefficient, Log P: Measured or estimated, from references
[3] = Water/octanol partitioning coefficient, Log P
From the text: One such molecular property that is used to predict partitioning potential is the octanol—water partition coefficient; Log P, which is the logarithm of the ratio of the solute concentration in the octanol phase to the solute concentration in the water phase, at a defined temperature.

[4] = Encapsulation of hydrophobic compounds into milk fat globules (loading capacity, encapsulation efficiency); format: physicochemical, bovine; conditions: 10% v/v ethanol, 30 min; for % Encapsulation efficiency / maximal loading capacity (LC): room temperature; for maximal loading capacity (LC): maximal value over 50-2500 μM
Method: Raw milk was procured from a local market and stored at 4° C. Milk was used for up to 4 days post purchase. MFGs were separated from raw milk using centrifugal separation following a modified version of the method by Gallier et al. (2010) (12). First, raw milk was diluted with Milli-Q water at 9:1 water to milk, and the solution was centrifuged at 3,000×g for 5 min using a fixed angle centrifuge rotor. Cream was then skimmed off the sides of the centrifuged tubes after discarding the aqueous phase. In order to remove more of the milk serum components, cream was reconstituted in water to reach 4% w/v, and subjected to another step of centrifugation at 3,000×g for 5 min Cream was collected as detailed prior, then reconstituted to 20% w/v in Milli-Q water. All separation steps were completed at room temperature.
Encapsulation of test compounds in MFGs was accomplished by mixing ethanolic stock solution of a compound with 20% w/v cream suspended in water. The mixture was gently inverted several times to mix, then allowed in incubate in the dark.
To test the effect of incubation temperature on the partitioning and encapsulation yield and efficiency, RA was added at 250 μM concentration and was allowed to incubate with MFGs for 30 min at 4, 22, and 40° C.
To quantify the amount of compound encapsulated in MFGs, cream was separated from ethanol-containing aqueous phase via centrifugal separation at 3,000 x g for 5 min. Cream was skimmed and added to methanol at 50 mg/mL and vortexed vigorously for 1 min, then centrifuged at 16,000×g for 10 min. Top layer of methanol was collected and absorbance was measured at appropriate wavelength for each compound. An absorbance blank was prepared following the same encapsulation and separation steps in the absence of compound. λmax in methanol (nm) for each compound is reported in Table 1.
Cream (20% w/v in Milli-Q water) that was separated following the steps in Example 2 was further separated via centrifugation at 3,000×g for 5 min. Fat content in cream was measured using a modified Folch method (13). An additional washing step was incorporated where the chloroform/water interface was washed with 1:1 water/methanol solution.

[5] = AAPH measurement of curcumin oxidative stability; format: physicochemical
Method: 100 mg/ml encapsulated oleosome and encapsulated whey protein emulsion were respectively added with 40mM AAPH (Sigma) or water as control. Encapsulated oleosome and whey protein emulsion were then rotated and curcumin was extracted at different time points.

[6] = Loading of curcumin in milk fat globules; format: physicochemical, bovine
Method: Raw milk was used within 3-4 days of purchasing during which it was stored at 4° C. MFGs were isolated using a modified form of the method by […] et al. (2010) ^3° . […] Raw cream that was separated following the method stated in Example 31 was used for the quantification of oil content per gram of raw cream. […] The two immiscible phases were separated. […] Chloroform extracts were combined and the solvent was removed under vacuum at room temperature for 24 h. Mass of the isolated lipid from the sample was measured gravimetrically. Measurements were completed in triplicated from independent raw milk samples. […] Incubation was completed in the dark to prevent photodegradation of curcumin. […] Encapsulations measurements were conducted in triplicates. […] The mixture was then vortexed rigorously, followed by centrifugation at 16,000×g for 10 min. […] Curcumin containing samples were kept covered throughout the extraction and measurements steps. The encapsulation efficiency was calculated as follows: where CE is the mass of curcumin extracted from MFGs, and […]. The loading capacity was calculated as follows: where CE is the mass of curcumin extracted from MFGs, and MF is the mass of milk fat in MFGs suspension.

[7] = 200 μg/g added curcumin/cream, 1 v/v % ethanol, 10 min
[8] = 400 μg/g added curcumin/cream, 2 v/v % ethanol, 10 min
[9] = 600 μg/g added curcumin/cream, 3 v/v % ethanol, 10 min
[10] = 1000 μg/g added curcumin/cream, 5 v/v % ethanol, 10 min
[11] = 1600 μg/g added curcumin/cream, 8 v/v % ethanol, 10 min
[12] = 2000 μg/g added curcumin/cream, 10 v/v % ethanol, 10 min

For CCOC(=O)C1=C(COCCN)NC(C)=C(C(=O)OC)C1c1ccccc1Cl (stereo not shown) [Amlodipine], the “solubility in water (Remarks)” value [1] is given as “Drug sparingly soluble in water. Special only has 1-month shelf-life”.
In the case of CC(=O)Oc1ccccc1C(=O)O [Aspirin], the “solubility in water (Remarks)” value [1] is given as “Very water soluble drug-use dispersible tablets”.
For COc1ccccc1OCCNCC(O)COc1cccc2[nH]c3ccccc3c12 (stereo not shown) [Carvedilol], the “solubility in water (Remarks)” value [1] is listed as “Drug sparingly soluble in water. Special only has 1-month shelf-life”.
In the case of O=C1Nc2ccc(Cl)cc2[C@@](C#CC2CC2)(C(F)(F)F)O1 [Efavirenz], the “Log P” value [2] is listed as 3.89-4.46 and the Waters solubility [1] is listed as 8.55 µg/mL.
For CCOC(=O)[C@H](CCc1ccccc1)N[C@@H](C)C(=O)N1CCC[C@H]1C(=O)O [Enalapril], the “solubility in water (Remarks)” value [1] is given as “Drug sparingly soluble in water. Crushed tablets suspended in water”.
For O=c1c(O)c(-c2ccc(O)c(O)c2)oc2cc(O)ccc12 [Fisetin], the “Water/octanol partitioning coefficient, Log P” value [2] is listed as 0.464-2.52 ^(14, 15), the logP [3] is listed as ~1.5 and the “% Encapsulation efficiency” value ([4]; 50 μM added compound) is listed as 28.64 ± 5.20%. The “% Encapsulation efficiency” value ([4]; 100 μM added compound) was 29.16 ± 1.50%, the “% Encapsulation efficiency” value ([4]; 150 μM added compound) was 30.55 ± 3.76% and the “% Encapsulation efficiency” value ([4]; 200 μM added compound) was 29.83 ± 2.47%. For the same compound, the “% Encapsulation efficiency” value ([4]; 250 μM added compound) was 28.41 ± 1.56%, the “% Encapsulation efficiency” value ([4]; 500 μM added compound) was 15.89 ± 1.42 % and the “% Encapsulation efficiency” value ([4]; 1000 μM added compound) was 15.16 ± 1.46 %. The “% Encapsulation efficiency” value ([4]; 1500 μM added compound) was 7.57 ± 0.43 %, the “% Encapsulation efficiency” value ([4]; 2000 μM added compound) was 14.26 ± 2.77 % and the “% Encapsulation efficiency” value ([4]; 2500 μM added compound) was 4.49 ± 1.08 %. The “maximal loading capacity (LC)” value [4] was 9.77 μg per gram of milk fat.
For CC(C)(C)NCC(O)COc1cccc2c1CC(O)C(O)C2 (stereo not shown) [Nadolol], the “solubility in water (Remarks)” value [1] is given as “Drug sparingly soluble in water. Special only has 1-month shelf-life”.
For CC[C@H](C)C(=O)O[C@H]1C[C@H](O)C=C2C=C[C@H](C)[C@H](CC[C@@H](O)C[C@@H](O)CC(=O)O)[C@H]21 [Pravastatin], the “solubility in water (Remarks)” value [1] is given as “Drug freely soluble in water, crushed tablets often dissolved in water”.
For O.O=c1c(O)c(-c2ccc(O)c(O)c2)oc2cc(O)cc(O)c12 [Quercetin hydrate], the “Water/octanol partitioning coefficient, Log P” value [2] is listed as 1.82-2.075 ^(16, 17), the “% Encapsulation efficiency” value ([4]; 50 μM added compound) is listed as 25.27 ± 3.47^ % and the “% Encapsulation efficiency” value ([4]; 100 μM added compound) is listed as 45.35 ± 8.53 %. For the same compound, the “% Encapsulation efficiency” value ([4]; 150 μM added compound) was 43.78 ± 4.16 %, the “% Encapsulation efficiency” value ([4]; 200 μM added compound) was 50.09 ± 3.71 % and the “% Encapsulation efficiency” value ([4]; 250 μM added compound) was 48.95 ± 3.47 %. The “% Encapsulation efficiency” value ([4]; 500 μM added compound) was 49.00 ± 1.17 %, the “% Encapsulation efficiency” value ([4]; 1000 μM added compound) was 12.91 ± 1.78 % and the “% Encapsulation efficiency” value ([4]; 1500 μM added compound) was 18.38 ± 9.27 %. The “% Encapsulation efficiency” value ([4]; 2000 μM added compound) was 17.92 ± 4.31 %, the “% Encapsulation efficiency” value ([4]; 2500 μM added compound) was 13.70 ± 1.30 % and the “maximal loading capacity (LC)” value [4] was 12.97 μg per gram of milk fat. The “encapsulation efficiency (EE %), maximal/overall value” ([4]; over tested concentrations) was 50%.
In the case of CCOC(=O)[C@H](CCc1ccccc1)N[C@@H](C)C(=O)N1[C@H](C(=O)O)C[C@@H]2CCC[C@@H]21 [Ramipril], the “solubility in water (Remarks)” value [1] is given as “Drug sparingly soluble in water. Crushed tablets suspended in water”.
For CC(=O)CC(c1ccccc1)c1c(O)c2ccccc2oc1=O (stereo not shown) [Warfarin], the “solubility in water (Remarks)” value [1] is given as “Drug freely soluble in water, crushed tablets often dissolved in water”.
In the case of COc1cc(/C=C/C(=O)CC(=O)/C=C/c2ccc(O)c(OC)c2)ccc1O [curcumin], the “Log P” value [2] is given as 4.3, the “Log P” value ([2]; listed as Curcumin) is given as “approximately 4.3” and the curcumin absorbance remaining ([5]; WPI control group (water), at 20 and 24 h) is given as 90%. For the same compound, the curcumin absorbance remaining ([5]; WPI, 40mM AAPH) was 0.03%, the curcumin absorbance remaining ([5]; WPI, 40mM AAPH, 20 h) was 22% and the curcumin absorbance remaining ([5]; WPI, 40mM AAPH, 24 h) was 12%. The curcumin absorbance remaining ([5]; oleosome control group (water), within 46 h) was “above 90%”, the curcumin absorbance remaining ([5]; oleosome, 40mM AAPH) was 42% and the curcumin absorbance remaining ([5]; oleosome, 40mM AAPH, 20 h) was 76%. For the same compound, the curcumin absorbance remaining ([5]; oleosome, 40mM AAPH, 24 h) was 68%, the “increase in encapsulation yield compared to reported loading values in emulsions formed using edible oils” value [6] was “at least 3 folds” and the EE % [6, 7] was 62.09 ± 1.46%. The “LC %, curcumin/milk fat” value [6, 7] was 368 μg/g and 368.11 ± 2.92 ^a μg/g, the EE % [6, 8] was 61.17 ± 2.13% and the “LC %, curcumin/milk fat” value [6, 8] was 244.69 ± 8.53 ^b μg/g. For the same compound, the EE % [6, 9] was 62.10 ± 2.54%, the “LC %, curcumin/milk fat” value [6, 9] was 372.60 ± 15.27 ^c μg/g and the EE % [6, 10] was 66.56 ± 0.13 %. The “LC %, curcumin/milk fat” value [6, 10] was 665.55 ± 1.31 ^d μg/g, the EE % [6, 11] was 62.55 ± 0.37% and the “LC %, curcumin/milk fat” value [6, 11] was 1000.76 ± 5.97 ^e μg/g. For the same compound, the EE % [6, 12] was 59.33 ± 0.73%, the “LC %, curcumin/milk fat” value [6, 12] was 1186.65±14.63 μg/g and 1186 μg/g and 1186.65 ± 14.63 ^ μg/g and the “EE % range over curcumin and ethanol concentrations” value ([6]; 200-2000 μg/g of raw cream, 1 to 10% v/v ethanol, 10 min) was 59-64%. It also gave an EE % ([6]; Incubation time 10 min, fixed concentration of curcumin and ethanol) of 62.36 ± 1.85%, an EE % ([6]; Incubation time 20 min, fixed concentration of curcumin and ethanol) of 66.43 ± 4.32% and an EE % ([6]; Incubation time 30 min, fixed concentration of curcumin and ethanol) of 61.20 ± 1.78%. For the same compound, the EE % ([6]; Incubation time 40 min, fixed concentration of curcumin and ethanol) was 59.75 ± 2.10%, the EE % ([6]; Incubation time 50 min, fixed concentration of curcumin and ethanol) was 57.24 ± 0.83 % and the EE % ([6]; Incubation time 60 min, fixed concentration of curcumin and ethanol) was 64.30 ± 2.42%. The “curcumin encapsulated per gram of milk fat” value ([6]; MFGs, simple diffusion) was “Greater than 1000 μg”.
